Patent publication US9433572B2, “Pomegranate based skin protectant and topical application” (POM Wonderful, LLC, priority 2008, dated 2016)

Tested on: lipid peroxyl radicals
Test: In vivo bleaching of beta-carotene applied to the skin under UVA (lipid peroxyl radical scavenging)
Conditions: human forearm skin, 2 mg/cm^2, UVA
Procedure: The protective effect of pomegranate-derived skin cream from the Example 4 was determined by assessing lipid peroxyl free radical scavenging capacity on the skin. Free radicals have been implicated in many of undesirable aspects of skin aging whether due to intrinsic cause or to exposure to UV radiation. Carotenoids like beta-carotene are efficient antioxidants scavenging singlet molecular oxygen and peroxyl radicals generated in during photooxidation. The bleaching of carotenoids has been used to evaluate the auto-oxidation activity of natural products. This technique can be used to evaluate, in vivo in non-invasive way, the ability of skin cream products to scavenge lipid peroxyl radicals. Basically, the method includes measuring the bleaching of beta-carotene applied to the skin when irradiated by UVA. […] An individual skin type is determined by an Individual Topology Angle (ITA), which can be found by using the following formula: […]*)×180/3.1415. Dr. Scholl's® Round Adhesive callus pad (Schering-Plough, Kenilworth, N.J.) were placed on the volar surface of the designated forearm (pre-cleaned with alcohol) of subjects. […] A baseline chromameter reading is taken after all of the callus pads have been applied. 2 mg/cm^2 of test skin cream and the positive control are applied in duplicate to each of the 2 sites. This is accomplished by means of a pre-calibrated syringe or by weighing the appropriate test material amount in a weigh boat. The test product and positive control are allowed to set on the forearm at ambient temperature for 15 minutes. The chromameter is used to measure the b* parameter of the coloration of the treated skin. Measurements are taken on the treated and untreated sites. The beta-carotene solution is then applied by means of a finger cot to obtain a uniform, homgeous orange color on all sites (pre-treated and non-treated), excluding the two control sites. The chromameter is used to measure the b* component of each site, post-application of the beta-carotene. […] The total exposure to UVA radiation is 6.0 J/cm^2. […]

## CC1=C(/C=C/C(C)=C/C=C/C(C)=C/C=C/C=C(C)/C=C/C=C(C)/C=C/C2=C(C)CCCC2(C)C)C(C)(C)CCC1 [®-carotene, beta-carotene]
At 10 minutes
  Mean of Color Index: 42%
At 30 minutes
  Mean of Color Index: 16%
At 60 minutes
  Mean of Color Index: 0%
